Assay results reported in the supplement of paper PMC10307832.

How the values were obtained:
Assay in all cases: relative viability (nuclei count vs DMSO), 5 days (fraction); higher = more cells survive
Ibrutinib + Luminespib = compound: C=CC(=O)N1CCC[C@@H](n2nc(-c3ccc(Oc4ccccc4)cc3)c3c(N)ncnc32)C1 [Ibrutinib] + CCNC(=O)c1noc(-c2cc(C(C)C)c(O)cc2O)c1-c1ccc(CN2CCOCC2)cc1 [Luminespib] (partner 0.01 µM)
Method in brief: (§1)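 Lung cancer cell lines were pin-tool dosed in 1536-well plates on the day after seeding, with either a lone drug or a fixed anchor-drug dose plus five library-drug doses (not always all listed) in √10 steps. Nuclei were counted on 4× images after 5 days. Relative viability is the ratio of treated-well to vehicle-well nuclei counts, with each value a median of duplicate plates.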

Ibrutinib + Crizotinib = compound: C=CC(=O)N1CCC[C@@H](n2nc(-c3ccc(Oc4ccccc4)cc3)c3c(N)ncnc32)C1 [Ibrutinib] + C[C@@H](Oc1cc(-c2cnn(C3CCNCC3)c2)cnc1N)c1c(Cl)ccc(F)c1Cl [Crizotinib] (partner 1 µM)
Method in brief: as §1

Ibrutinib + AZD7762 = compound: C=CC(=O)N1CCC[C@@H](n2nc(-c3ccc(Oc4ccccc4)cc3)c3c(N)ncnc32)C1 [Ibrutinib] + NC(=O)Nc1cc(-c2cccc(F)c2)sc1C(=O)N[C@H]1CCCNC1 [AZD7762] (partner 0.2 µM)
Method in brief: as §1

BMX-IN-1 + Lapatinib = compound: C=CC(=O)Nc1cc(-n2c(=O)ccc3cnc4ccc(-c5ccc(NS(C)(=O)=O)cc5)cc4c32)ccc1C [BMX-IN-1] + CS(=O)(=O)CCNCc1ccc(-c2ccc3ncnc(Nc4ccc(OCc5cccc(F)c5)c(Cl)c4)c3c2)o1 [Lapatinib] (partner 2 µM)
Method in brief: as §1

NCI-H2347
relative viability (Ibrutinib + Luminespib; first compound 0.01581 µM): 0.508 | relative viability (Ibrutinib + Luminespib; first compound 0.05 µM): 0.358 | relative viability (Ibrutinib + Luminespib; first compound 0.1581 µM): 0.323 | relative viability (Ibrutinib + Luminespib; first compound 0.5 µM): 0.529 | relative viability (Ibrutinib + Crizotinib; first compound 0.005 µM): 0.679 | relative viability (Ibrutinib + Crizotinib; first compound 0.01581 µM): 0.684 | relative viability (Ibrutinib + Crizotinib; first compound 0.05 µM): 0.739 | relative viability (Ibrutinib + Crizotinib; first compound 0.1581 µM): 0.592 | relative viability (Ibrutinib + Crizotinib; first compound 0.5 µM): 0.696 | relative viability (Ibrutinib + AZD7762; first compound 0.005 µM): 0.739 | relative viability (Ibrutinib + AZD7762; first compound 0.01581 µM): 0.733 | relative viability (Ibrutinib + AZD7762; first compound 0.05 µM): 0.69 | relative viability (Ibrutinib + AZD7762; first compound 0.1581 µM): 0.665 | relative viability (Ibrutinib + AZD7762; first compound 0.5 µM): 0.696 | relative viability (BMX-IN-1 + Lapatinib; first compound 0.02 µM): 1.01 | relative viability (BMX-IN-1 + Lapatinib; first compound 0.2 µM): 1.06 | relative viability (BMX-IN-1 + Lapatinib; first compound 0.6325 µM): 0.991 | relative viability (BMX-IN-1 + Lapatinib; first compound 2 µM): 0.944

NCI-H2405
relative viability (Ibrutinib + Luminespib; first compound 0.005 µM): 0.846 | relative viability (Ibrutinib + Luminespib; first compound 0.01581 µM): 0.669 | relative viability (Ibrutinib + Luminespib; first compound 0.05 µM): 0.66 | relative viability (Ibrutinib + Luminespib; first compound 0.1581 µM): 0.713 | relative viability (Ibrutinib + Luminespib; first compound 0.5 µM): 0.69 | relative viability (Ibrutinib + Crizotinib; first compound 0.01581 µM): 0.886 | relative viability (Ibrutinib + Crizotinib; first compound 0.05 µM): 0.779 | relative viability (Ibrutinib + Crizotinib; first compound 0.1581 µM): 0.824 | relative viability (Ibrutinib + Crizotinib; first compound 0.5 µM): 0.8 | relative viability (Ibrutinib + AZD7762; first compound 0.005 µM): 0.778 | relative viability (Ibrutinib + AZD7762; first compound 0.01581 µM): 0.65 | relative viability (Ibrutinib + AZD7762; first compound 0.5 µM): 0.829 | relative viability (BMX-IN-1 + Lapatinib; first compound 0.02 µM): 1.15 | relative viability (BMX-IN-1 + Lapatinib; first compound 0.2 µM): 1.04 | relative viability (BMX-IN-1 + Lapatinib; first compound 0.6325 µM): 1.09 | relative viability (BMX-IN-1 + Lapatinib; first compound 2 µM): 1.05

NCI-H3122
relative viability (Ibrutinib + Luminespib; first compound 0.005 µM): 0.0621 | relative viability (Ibrutinib + Luminespib; first compound 0.01581 µM): 0.0853 | relative viability (Ibrutinib + Luminespib; first compound 0.05 µM): 0.101 | relative viability (Ibrutinib + Luminespib; first compound 0.1581 µM): 0.104 | relative viability (Ibrutinib + Luminespib; first compound 0.5 µM): 0.0947 | relative viability (Ibrutinib + Crizotinib; first compound 0.005 µM): 0.237 | relative viability (Ibrutinib + Crizotinib; first compound 0.01581 µM): 0.263 | relative viability (Ibrutinib + Crizotinib; first compound 0.05 µM): 0.254 | relative viability (Ibrutinib + Crizotinib; first compound 0.1581 µM): 0.253 | relative viability (Ibrutinib + Crizotinib; first compound 0.5 µM): 0.244 | relative viability (Ibrutinib + AZD7762; first compound 0.005 µM): 1.16 | relative viability (Ibrutinib + AZD7762; first compound 0.01581 µM): 0.946 | relative viability (Ibrutinib + AZD7762; first compound 0.05 µM): 1.03 | relative viability (Ibrutinib + AZD7762; first compound 0.1581 µM): 0.885 | relative viability (Ibrutinib + AZD7762; first compound 0.5 µM): 0.992 | relative viability (BMX-IN-1 + Lapatinib; first compound 0.02 µM): 1.1 | relative viability (BMX-IN-1 + Lapatinib; first compound 0.2 µM): 1.08 | relative viability (BMX-IN-1 + Lapatinib; first compound 0.6325 µM): 0.988 | relative viability (BMX-IN-1 + Lapatinib; first compound 2 µM): 1.05

PC-3 [JPC-3]
relative viability (Ibrutinib + Luminespib; first compound 0.005 µM): 0.65 | relative viability (Ibrutinib + Luminespib; first compound 0.01581 µM): 0.64 | relative viability (Ibrutinib + Luminespib; first compound 0.05 µM): 0.74 | relative viability (Ibrutinib + Luminespib; first compound 0.1581 µM): 0.806 | relative viability (Ibrutinib + Luminespib; first compound 0.5 µM): 0.505 | relative viability (Ibrutinib + Crizotinib; first compound 0.005 µM): 0.988 | relative viability (Ibrutinib + Crizotinib; first compound 0.01581 µM): 0.907 | relative viability (Ibrutinib + Crizotinib; first compound 0.05 µM): 0.975 | relative viability (Ibrutinib + Crizotinib; first compound 0.1581 µM): 0.987 | relative viability (Ibrutinib + Crizotinib; first compound 0.5 µM): 0.6 | relative viability (Ibrutinib + AZD7762; first compound 0.005 µM): 0.631 | relative viability (Ibrutinib + AZD7762; first compound 0.01581 µM): 0.588 | relative viability (Ibrutinib + AZD7762; first compound 0.05 µM): 0.478 | relative viability (Ibrutinib + AZD7762; first compound 0.5 µM): 0.445 | relative viability (BMX-IN-1 + Lapatinib; first compound 0.02 µM): 0.533 | relative viability (BMX-IN-1 + Lapatinib; first compound 0.2 µM): 0.466 | relative viability (BMX-IN-1 + Lapatinib; first compound 0.6325 µM): 0.47 | relative viability (BMX-IN-1 + Lapatinib; first compound 2 µM): 0.476

PC-14
relative viability (Ibrutinib + Luminespib; first compound 0.005 µM): 0.167 | relative viability (Ibrutinib + Luminespib; first compound 0.01581 µM): 0.266 | relative viability (Ibrutinib + Luminespib; first compound 0.05 µM): 0.135 | relative viability (Ibrutinib + Luminespib; first compound 0.1581 µM): 0.127 | relative viability (Ibrutinib + Luminespib; first compound 0.5 µM): 0.179 | relative viability (Ibrutinib + Crizotinib; first compound 0.005 µM): 0.886 | relative viability (Ibrutinib + Crizotinib; first compound 0.01581 µM): 0.968 | relative viability (Ibrutinib + Crizotinib; first compound 0.05 µM): 0.896 | relative viability (Ibrutinib + Crizotinib; first compound 0.1581 µM): 0.901 | relative viability (Ibrutinib + Crizotinib; first compound 0.5 µM): 0.563 | relative viability (Ibrutinib + AZD7762; first compound 0.005 µM): 0.379 | relative viability (Ibrutinib + AZD7762; first compound 0.01581 µM): 0.349 | relative viability (Ibrutinib + AZD7762; first compound 0.05 µM): 0.314 | relative viability (Ibrutinib + AZD7762; first compound 0.1581 µM): 0.224 | relative viability (Ibrutinib + AZD7762; first compound 0.5 µM): 0.23 | relative viability (BMX-IN-1 + Lapatinib; first compound 0.02 µM): 0.356 | relative viability (BMX-IN-1 + Lapatinib; first compound 0.2 µM): 0.321 | relative viability (BMX-IN-1 + Lapatinib; first compound 0.6325 µM): 0.338 | relative viability (BMX-IN-1 + Lapatinib; first compound 2 µM): 0.258

RERF-LC-KJ
relative viability (Ibrutinib + Luminespib; first compound 0.005 µM): 1.24 | relative viability (Ibrutinib + Luminespib; first compound 0.01581 µM): 1.12 | relative viability (Ibrutinib + Luminespib; first compound 0.05 µM): 1.26 | relative viability (Ibrutinib + Luminespib; first compound 0.1581 µM): 1.14 | relative viability (Ibrutinib + Luminespib; first compound 0.5 µM): 1.16 | relative viability (Ibrutinib + Crizotinib; first compound 0.005 µM): 0.865 | relative viability (Ibrutinib + Crizotinib; first compound 0.01581 µM): 0.742 | relative viability (Ibrutinib + Crizotinib; first compound 0.05 µM): 0.825 | relative viability (Ibrutinib + Crizotinib; first compound 0.1581 µM): 0.889 | relative viability (Ibrutinib + Crizotinib; first compound 0.5 µM): 0.815 | relative viability (Ibrutinib + AZD7762; first compound 0.005 µM): 0.464 | relative viability (Ibrutinib + AZD7762; first compound 0.01581 µM): 0.943 | relative viability (Ibrutinib + AZD7762; first compound 0.05 µM): 0.845 | relative viability (Ibrutinib + AZD7762; first compound 0.1581 µM): 0.896 | relative viability (Ibrutinib + AZD7762; first compound 0.5 µM): 0.714 | relative viability (BMX-IN-1 + Lapatinib; first compound 0.02 µM): 0.876 | relative viability (BMX-IN-1 + Lapatinib; first compound 0.2 µM): 0.944 | relative viability (BMX-IN-1 + Lapatinib; first compound 0.6325 µM): 0.963 | relative viability (BMX-IN-1 + Lapatinib; first compound 2 µM): 0.918
